Measurements reported in ChEMBL document CHEMBL4507300 (2021).

Columns and labels:
[1] = molecular target: Insulin-like growth factor 1 receptor (Homo sapiens) (UniProt P08069); conditions: Compound concentration 1000.0 nM
[2] = molecular target: Mitogen-activated protein kinase kinase kinase 6 (Homo sapiens) (UniProt O95382); conditions: Compound concentration 1000.0 nM
[3] = molecular target: Ephrin type-A receptor 4 (Homo sapiens) (UniProt P54764); conditions: Compound concentration 1000.0 nM
[4] = molecular target: Interleukin-1 receptor-associated kinase 3 (Homo sapiens) (UniProt Q9Y616); conditions: Compound concentration 1000.0 nM
[5] = molecular target: Serine/threonine-protein kinase WNK4 (Homo sapiens) (UniProt Q96J92); conditions: Compound concentration 1000.0 nM
Serine/threonine-protein kinase WNK4 (Homo sapiens), sequence (Q96J92 whole entry): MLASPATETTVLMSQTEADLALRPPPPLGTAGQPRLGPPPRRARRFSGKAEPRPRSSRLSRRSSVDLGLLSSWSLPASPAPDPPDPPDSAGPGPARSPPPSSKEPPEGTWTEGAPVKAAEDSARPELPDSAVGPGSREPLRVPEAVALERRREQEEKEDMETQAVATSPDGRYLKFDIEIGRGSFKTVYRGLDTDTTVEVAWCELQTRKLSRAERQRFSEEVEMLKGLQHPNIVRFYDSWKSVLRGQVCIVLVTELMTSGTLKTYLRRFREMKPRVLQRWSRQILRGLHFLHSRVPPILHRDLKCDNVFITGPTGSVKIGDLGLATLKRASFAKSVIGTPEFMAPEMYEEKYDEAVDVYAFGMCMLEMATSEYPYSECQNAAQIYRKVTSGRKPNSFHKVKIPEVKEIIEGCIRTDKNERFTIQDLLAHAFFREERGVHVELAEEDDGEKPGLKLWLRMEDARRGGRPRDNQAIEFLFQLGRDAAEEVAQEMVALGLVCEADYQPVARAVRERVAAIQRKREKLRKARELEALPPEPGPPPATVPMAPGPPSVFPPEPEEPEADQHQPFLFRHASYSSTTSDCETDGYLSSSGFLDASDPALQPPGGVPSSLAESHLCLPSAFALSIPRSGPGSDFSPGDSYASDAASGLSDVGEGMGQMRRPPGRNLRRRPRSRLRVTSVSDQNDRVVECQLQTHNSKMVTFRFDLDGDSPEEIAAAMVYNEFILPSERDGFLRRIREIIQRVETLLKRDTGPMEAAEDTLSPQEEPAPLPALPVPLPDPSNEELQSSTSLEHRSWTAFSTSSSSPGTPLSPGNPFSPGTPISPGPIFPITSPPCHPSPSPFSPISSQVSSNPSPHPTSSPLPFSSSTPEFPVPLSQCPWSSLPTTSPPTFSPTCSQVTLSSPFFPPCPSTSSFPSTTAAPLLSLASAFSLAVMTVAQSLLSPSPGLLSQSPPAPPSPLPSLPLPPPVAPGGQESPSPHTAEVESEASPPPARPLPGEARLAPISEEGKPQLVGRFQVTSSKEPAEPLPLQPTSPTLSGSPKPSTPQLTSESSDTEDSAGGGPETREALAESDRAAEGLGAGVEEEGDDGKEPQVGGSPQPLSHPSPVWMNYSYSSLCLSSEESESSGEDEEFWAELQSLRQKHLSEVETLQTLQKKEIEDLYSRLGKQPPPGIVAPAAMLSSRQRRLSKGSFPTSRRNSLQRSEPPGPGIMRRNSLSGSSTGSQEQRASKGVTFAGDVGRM

[6] = molecular target: Mitogen-activated protein kinase kinase kinase 20 (Homo sapiens) (UniProt Q9NYL2); conditions: Compound concentration 1000.0 nM
[7] = molecular target: Serine/threonine-protein kinase LATS1 (Homo sapiens) (UniProt O95835); conditions: Compound concentration 1000.0 nM
[8] = molecular target: cAMP-dependent protein kinase catalytic subunit PRKX (Homo sapiens) (UniProt P51817); conditions: Compound concentration 1000.0 nM
cAMP-dependent protein kinase catalytic subunit PRKX (Homo sapiens), sequence (P51817 whole entry): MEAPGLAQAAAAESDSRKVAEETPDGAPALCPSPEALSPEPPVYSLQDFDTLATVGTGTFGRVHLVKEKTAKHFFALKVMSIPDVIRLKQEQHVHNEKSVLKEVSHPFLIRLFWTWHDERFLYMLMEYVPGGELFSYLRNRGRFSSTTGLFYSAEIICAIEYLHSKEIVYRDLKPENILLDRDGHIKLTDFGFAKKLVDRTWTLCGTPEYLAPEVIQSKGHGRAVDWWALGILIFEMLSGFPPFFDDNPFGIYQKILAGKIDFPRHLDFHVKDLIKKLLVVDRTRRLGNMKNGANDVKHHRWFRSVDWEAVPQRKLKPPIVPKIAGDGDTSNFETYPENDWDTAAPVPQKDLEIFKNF

[9] = test system: Tyrosine-protein kinase ABL1 (Homo sapiens), P00519 [F317L]; conditions: Compound concentration 1000.0 nM
Tyrosine-protein kinase ABL1 (Homo sapiens), P00519 [F317L], sequence (P00519 whole entry F317L, canonical isoform): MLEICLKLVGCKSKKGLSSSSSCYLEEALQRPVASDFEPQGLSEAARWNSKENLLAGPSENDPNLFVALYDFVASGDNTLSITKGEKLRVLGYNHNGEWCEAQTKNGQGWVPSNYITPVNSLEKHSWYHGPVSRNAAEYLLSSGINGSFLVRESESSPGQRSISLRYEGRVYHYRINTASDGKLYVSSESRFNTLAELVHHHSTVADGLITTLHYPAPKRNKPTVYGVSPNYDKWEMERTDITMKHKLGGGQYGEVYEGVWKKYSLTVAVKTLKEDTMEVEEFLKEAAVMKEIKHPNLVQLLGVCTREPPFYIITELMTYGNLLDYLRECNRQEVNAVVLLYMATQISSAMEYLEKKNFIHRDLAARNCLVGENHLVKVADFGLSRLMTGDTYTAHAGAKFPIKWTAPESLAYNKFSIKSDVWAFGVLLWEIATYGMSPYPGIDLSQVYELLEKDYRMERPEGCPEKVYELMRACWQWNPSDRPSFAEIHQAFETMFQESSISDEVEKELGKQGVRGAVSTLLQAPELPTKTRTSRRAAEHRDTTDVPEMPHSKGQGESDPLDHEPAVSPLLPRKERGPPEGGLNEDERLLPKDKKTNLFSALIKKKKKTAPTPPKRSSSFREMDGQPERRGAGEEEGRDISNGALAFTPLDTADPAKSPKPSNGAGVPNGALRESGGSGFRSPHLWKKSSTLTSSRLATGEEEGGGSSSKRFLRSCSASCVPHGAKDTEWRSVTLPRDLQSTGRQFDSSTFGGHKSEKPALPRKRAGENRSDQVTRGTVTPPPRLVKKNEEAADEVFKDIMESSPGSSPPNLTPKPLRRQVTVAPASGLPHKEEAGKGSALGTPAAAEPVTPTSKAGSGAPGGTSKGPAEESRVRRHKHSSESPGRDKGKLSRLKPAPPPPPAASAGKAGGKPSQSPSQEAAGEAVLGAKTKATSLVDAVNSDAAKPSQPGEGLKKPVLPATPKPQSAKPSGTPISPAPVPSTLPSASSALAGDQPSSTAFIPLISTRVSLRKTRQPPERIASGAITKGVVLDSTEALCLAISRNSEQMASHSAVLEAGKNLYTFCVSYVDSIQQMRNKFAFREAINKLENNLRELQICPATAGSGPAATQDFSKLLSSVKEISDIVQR

[10] = molecular target: Phosphorylase b kinase regulatory subunit alpha, liver isoform (Homo sapiens) (UniProt P46019); conditions: Compound concentration 1000.0 nM
[11] = molecular target: Dual specificity mitogen-activated protein kinase kinase 1 (Homo sapiens) (UniProt Q02750); conditions: Compound concentration 1000.0 nM
[12] = molecular target: Mitogen-activated protein kinase 11 (Homo sapiens) (UniProt Q15759); conditions: Compound concentration 1000.0 nM
[13] = molecular target: Casein kinase II subunit alpha' (Homo sapiens) (UniProt P19784); conditions: Compound concentration 1000.0 nM
[14] = molecular target: Muscle, skeletal receptor tyrosine-protein kinase (Homo sapiens) (UniProt O15146); conditions: Compound concentration 1000.0 nM
[15] = molecular target: Serine/threonine-protein kinase MARK2 (Homo sapiens) (UniProt Q7KZI7); conditions: Compound concentration 1000.0 nM
[16] = molecular target: Alpha-1A adrenergic receptor (Homo sapiens) (UniProt P35348); conditions: Compound concentration 10.0 uM
[17] = molecular target: Ephrin type-B receptor 1 (Homo sapiens) (UniProt P54762); conditions: Compound concentration 1000.0 nM
[18] = molecular target: ALK tyrosine kinase receptor (Homo sapiens) (UniProt Q9UM73); conditions: Compound concentration 1000.0 nM
[19] = molecular target: Tyrosine-protein kinase ZAP-70 (Homo sapiens) (UniProt P43403); conditions: Compound concentration 1000.0 nM
[20] = molecular target: Serine/threonine-protein kinase Nek1 (Homo sapiens) (UniProt Q96PY6); conditions: Compound concentration 1000.0 nM
[21] = molecular target: LIM domain kinase 2 (Homo sapiens) (UniProt P53671); conditions: Compound concentration 1000.0 nM
[22] = molecular target: RAC-beta serine/threonine-protein kinase (Homo sapiens) (UniProt P31751); conditions: Compound concentration 1000.0 nM
[23] = molecular target: Serine/threonine-protein kinase BRSK1 (Homo sapiens) (UniProt Q8TDC3); conditions: Compound concentration 1000.0 nM
Serine/threonine-protein kinase BRSK1 (Homo sapiens), sequence (Q8TDC3 whole entry): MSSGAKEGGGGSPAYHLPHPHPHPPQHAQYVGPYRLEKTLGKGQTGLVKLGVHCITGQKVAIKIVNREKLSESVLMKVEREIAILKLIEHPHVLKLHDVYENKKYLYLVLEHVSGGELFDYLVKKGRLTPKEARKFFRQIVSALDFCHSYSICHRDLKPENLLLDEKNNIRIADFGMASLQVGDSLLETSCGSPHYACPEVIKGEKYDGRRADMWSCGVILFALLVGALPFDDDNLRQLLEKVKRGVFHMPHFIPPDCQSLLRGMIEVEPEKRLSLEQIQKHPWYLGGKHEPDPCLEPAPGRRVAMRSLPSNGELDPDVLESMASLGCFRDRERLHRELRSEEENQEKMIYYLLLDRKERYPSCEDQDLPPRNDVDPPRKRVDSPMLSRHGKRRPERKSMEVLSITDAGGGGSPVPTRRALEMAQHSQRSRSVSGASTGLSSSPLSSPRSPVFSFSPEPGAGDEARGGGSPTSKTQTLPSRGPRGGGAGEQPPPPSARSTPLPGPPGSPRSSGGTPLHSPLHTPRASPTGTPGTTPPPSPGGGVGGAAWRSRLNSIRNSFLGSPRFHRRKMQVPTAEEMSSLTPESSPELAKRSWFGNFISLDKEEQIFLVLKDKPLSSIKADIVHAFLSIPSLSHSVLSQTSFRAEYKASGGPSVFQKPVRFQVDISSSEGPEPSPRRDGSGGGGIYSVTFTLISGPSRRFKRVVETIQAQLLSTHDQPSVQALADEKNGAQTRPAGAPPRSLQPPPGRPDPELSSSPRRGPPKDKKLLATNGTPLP

[24] = molecular target: Dual specificity testis-specific protein kinase 1 (Homo sapiens) (UniProt Q15569); conditions: Compound concentration 1000.0 nM
[25] = molecular target: Cytoplasmic tyrosine-protein kinase BMX (Homo sapiens) (UniProt P51813); conditions: Compound concentration 1000.0 nM
[26] = molecular target: Tyrosine-protein kinase Lck (Homo sapiens) (UniProt P06239); conditions: Compound concentration 1000.0 nM
[27] = molecular target: Serine/threonine-protein kinase SIK3 (Homo sapiens) (UniProt Q9Y2K2); conditions: Compound concentration 1000.0 nM
[28] = molecular target: Casein kinase I isoform alpha-like (Homo sapiens) (UniProt Q8N752); conditions: Compound concentration 1000.0 nM
[29] = molecular target: Myosin light chain kinase, smooth muscle (Homo sapiens) (UniProt Q15746); conditions: Compound concentration 1000.0 nM
[30] = molecular target: Tyrosine-protein kinase receptor TYRO3 (Homo sapiens) (UniProt Q06418); conditions: Compound concentration 1000.0 nM
[31] = molecular target: Casein kinase I isoform gamma-3 (Homo sapiens) (UniProt Q9Y6M4); conditions: Compound concentration 1000.0 nM
[32] = test system: Tyrosine-protein kinase ABL1 (Homo sapiens), P00519 [F317L]; conditions: Compound concentration 1000.0 nM; remark: listed apart in the source
[33] = molecular target: Cyclin-dependent kinase-like 5 (Homo sapiens) (UniProt O76039); conditions: Compound concentration 1000.0 nM
[34] = molecular target: Mitogen-activated protein kinase kinase kinase 11 (Homo sapiens) (UniProt Q16584); conditions: Compound concentration 1000.0 nM
Mitogen-activated protein kinase kinase kinase 11 (Homo sapiens), sequence (Q16584 whole entry, looked up): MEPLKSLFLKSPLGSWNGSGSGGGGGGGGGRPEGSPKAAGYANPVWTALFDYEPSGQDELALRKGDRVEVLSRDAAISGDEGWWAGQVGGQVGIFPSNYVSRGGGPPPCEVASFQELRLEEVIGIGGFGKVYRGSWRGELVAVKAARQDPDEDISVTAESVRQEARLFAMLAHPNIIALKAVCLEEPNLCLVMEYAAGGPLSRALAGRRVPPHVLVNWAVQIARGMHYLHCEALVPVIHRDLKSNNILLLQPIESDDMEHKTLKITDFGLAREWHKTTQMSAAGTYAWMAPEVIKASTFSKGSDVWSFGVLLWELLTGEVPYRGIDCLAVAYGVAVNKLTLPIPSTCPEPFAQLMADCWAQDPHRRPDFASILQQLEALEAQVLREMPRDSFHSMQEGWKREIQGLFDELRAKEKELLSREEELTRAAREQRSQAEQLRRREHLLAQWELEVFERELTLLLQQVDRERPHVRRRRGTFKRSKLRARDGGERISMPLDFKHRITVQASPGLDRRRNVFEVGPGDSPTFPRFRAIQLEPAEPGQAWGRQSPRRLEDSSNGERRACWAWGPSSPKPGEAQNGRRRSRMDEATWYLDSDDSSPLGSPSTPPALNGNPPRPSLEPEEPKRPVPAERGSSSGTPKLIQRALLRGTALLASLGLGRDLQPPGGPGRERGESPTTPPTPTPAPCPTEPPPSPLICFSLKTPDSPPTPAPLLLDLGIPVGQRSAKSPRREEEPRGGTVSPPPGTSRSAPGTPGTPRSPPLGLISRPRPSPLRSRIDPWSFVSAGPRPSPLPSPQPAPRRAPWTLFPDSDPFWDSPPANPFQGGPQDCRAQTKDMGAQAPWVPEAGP

[35] = molecular target: Peripheral plasma membrane protein CASK (Homo sapiens) (UniProt O14936); conditions: Compound concentration 1000.0 nM
[36] = test system: eIF-2-alpha kinase GCN2 (Homo sapiens), Q9P2K8 [S808G]; conditions: Compound concentration 1000.0 nM
[37] = molecular target: Death-associated protein kinase 3 (Homo sapiens) (UniProt O43293); conditions: Compound concentration 1000.0 nM
[38] = molecular target: Ephrin type-A receptor 6 (Homo sapiens) (UniProt Q9UF33); conditions: Compound concentration 1000.0 nM
[39] = molecular target: Serine/threonine-protein kinase PAK 5 (Homo sapiens) (UniProt Q9P286); conditions: Compound concentration 1000.0 nM
[40] = molecular target: Serine/threonine-protein kinase 25 (Homo sapiens) (UniProt O00506); conditions: Compound concentration 1000.0 nM
Serine/threonine-protein kinase 25 (Homo sapiens), sequence (O00506 whole entry, looked up): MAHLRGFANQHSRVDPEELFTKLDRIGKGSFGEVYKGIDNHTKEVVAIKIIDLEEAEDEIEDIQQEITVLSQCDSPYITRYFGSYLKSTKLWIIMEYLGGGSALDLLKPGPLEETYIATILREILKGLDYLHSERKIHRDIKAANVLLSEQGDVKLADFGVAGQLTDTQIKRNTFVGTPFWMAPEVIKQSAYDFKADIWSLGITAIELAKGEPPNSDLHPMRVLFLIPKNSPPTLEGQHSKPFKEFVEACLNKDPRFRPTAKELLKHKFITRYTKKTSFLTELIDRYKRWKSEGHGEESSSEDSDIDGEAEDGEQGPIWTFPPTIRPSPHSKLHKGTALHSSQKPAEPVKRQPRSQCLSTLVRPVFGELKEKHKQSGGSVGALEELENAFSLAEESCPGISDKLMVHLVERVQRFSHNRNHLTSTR

[41] = molecular target: Myosin-IIIb (Homo sapiens) (UniProt Q8WXR4); conditions: Compound concentration 1000.0 nM
[42] = molecular target: Bone morphogenetic protein receptor type-2 (Homo sapiens) (UniProt Q13873); conditions: Compound concentration 1000.0 nM
[43] = molecular target: TGF-beta receptor type-2 (Homo sapiens) (UniProt P37173); conditions: Compound concentration 1000.0 nM
[44] = molecular target: Serine/threonine-protein kinase PAK 3 (Homo sapiens) (UniProt O75914); conditions: Compound concentration 1000.0 nM
[45] = molecular target: Mitogen-activated protein kinase 3 (Homo sapiens) (UniProt P27361); conditions: Compound concentration 1000.0 nM

COc1cccc(CNC(=O)c2nc3scc(COCc4ccc(C(=O)O)cc4)c3c(=O)[nH]2)c1 [T-26c]
inactive: residual activity [1] 100% | residual activity [2] 74.5% | residual activity [3] 91.1% | residual activity [4] 97.5% | residual activity [5] 100% | residual activity [6] 85.5% | residual activity [7] 100% | residual activity [8] 100% | residual activity [9] 78.7% | residual activity [10] 83.8% | residual activity [11] 73.5% | residual activity [12] 100% | residual activity [13] 79.4% | residual activity [14] 100% | residual activity [15] 100% | inhibition [16] -1.51% | residual activity [17] 90.9% | residual activity [18] 92% | residual activity [19] 67.1% | residual activity [20] 100% | residual activity [21] 96.2% | residual activity [22] 93.3% | residual activity [23] 100% | residual activity [24] 82.8% | residual activity [25] 100% | residual activity [26] 100% | residual activity [27] 63.5% | residual activity [28] 94.1% | residual activity [29] 100% | residual activity [30] 100% | residual activity [31] 96.6% | residual activity [32] 87.2% | residual activity [33] 89.5% | residual activity [34] 100% | residual activity [35] 67.3% | residual activity [36] 100% | residual activity [37] 92.2% | residual activity [38] 85.4% | residual activity [39] 87.4% | residual activity [40] 100% | residual activity [41] 100% | residual activity [42] 71.8% | residual activity [43] 97% | residual activity [44] 51.9% | residual activity [45] 100%
